≈ marks a conversion by molar mass, not a printed value. Positions of bridges follow the written chain, without caps; N, C: chain ends. Non-standard residues stand in square brackets, D forms with d. Residues, ends and D or L forms follow the SMILES beside them. S5 = C=CCCC[C@](C)(N)C(=O)O; Orn = NCCC[C@H](N)C(=O)O; Dap = NC[C@H](N)C(=O)O
Experiments:
[1] = tested on: E. coli; format: cell-based, Escherichia coli
Procedure, shortened: (§1)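 Visible-growth endpoint after 20-24 h at 37 °C defines the MIC. Test organisms, pre-grown to log phase, were exposed at 5×10^5 CFU/ml to peptide dilution series in standard or cation-adjusted Mueller-Hinton broth.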

[2] = tested on: A. baumannii; format: cell-based, Acinetobacter baumannii
Procedure, shortened: as §1

[3] = tested on: P. aeruginosa; format: cell-based, Pseudomonas aeruginosa
Procedure, shortened: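 MIC taken as lowest peptide concentration with no visible growth after 20-24 h at 37 °C. Peptide serial dilutions from water stocks met P. aeruginosa inoculum (5×10^5 CFU/ml final) in MHB or MHB II, per a CLSI-adapted microbroth protocol.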

[4] = tested on: K. pneumoniae; format: cell-based, Klebsiella pneumoniae
Procedure, shortened: as §1

[5] = tested on: S. aureus; format: cell-based, Staphylococcus aureus
Procedure, shortened: as §1

[6] = in vitro; format: cell-based; conditions: human
Procedure, shortened: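 LDH release (absorbance at 490 nm) measured in the media of cells treated with serially diluted StAMPs or vehicle at 37 °C: 90 min for renal RPTEC, 48 h for liver HepG2. Cells were seeded overnight beforehand and media refreshed before dosing.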

[7] = in vitro; format: cell-based; conditions: human, Inhibitory Concentration at 50% Cytotoxicity (IC50) Human Liver Cells (HepG2)
Procedure, shortened: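 Cytotoxicity read by CellTiter-Glo luminescence after 48 h at 37 °C exposure to serially diluted StAMPs or vehicle. HepG2 cells were grown in EMEM plus 10% FBS and given 4 h to attach before dosing; peptides came from a 5 mg/mL aqueous stock.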

| Compound | Minimum Inhibitory Concentration (MIC) E. coli [1] [µg/mL] | Minimum Inhibitory Concentration (MIC) A. baumannii [2] [µg/mL] | Minimum Inhibitory Concentration (MIC) P. aeruginosa [3] [µg/mL] | Minimum Inhibitory Concentration (MIC) K. pneumoniae [4] [µg/mL] | Minimum Inhibitory Concentration (MIC) S. aureus [5] [µg/mL] | IC50 at 90 min [6] [µg/mL] | IC50 at 48 hours [7] [µg/mL] |
| --- | --- | --- | --- | --- | --- | --- | --- |
| CC(C)[C@@H]1NC(=O)[C@@](C)(NC(=O)[C@H](C)NC(=O)[C@H](CCCCN)NC(=O)CNC(=O)[C@H](Cc2ccccc2)NC(=O)[C@H](CCCCN)NC(=O)[C@H](CCCCN)NC(=O)[C@H](CCCCN)NC(=O)[C@H](Cc2ccc(O)cc2)NC(=O)[C@H](Cc2c[nH]cn2)NC(=O)[C@]2(C)CCCC=CCCC[C@](C)(NC(=O)CN)C(=O)NCC(=O)N[C@@H](CCCCN)C(=O)N[C@@H](Cc3ccccc3)C(=O)N2)CCCC=CCCC[C@@](C)(C(=O)N[C@@H](C)C(=O)N[C@@H](CCCCN)C(=O)N[C@@H](CCCCN)C(N)=O)NC(=O)[C@H](CCC(=O)O)NC(=O)CNC1=O [compound 9] (H-G[S5]GKF[S5]HYKKKFGKA[S5]VGE[S5]AKK-NH2; staple 2-6, 16-20) | 8 | 4 | 16 | >64 | >64 | > 200 | > 200 |
| CC(C)[C@@H]1NC(=O)[C@@](C)(NC(=O)[C@H](C)NC(=O)[C@H](CCCCN)NC(=O)CNC(=O)[C@H](Cc2ccccc2)NC(=O)[C@H](CCCCN)NC(=O)[C@H](CCCCN)NC(=O)[C@H](CN)NC(=O)[C@H](CCCCN)NC(=O)[C@H](CCCCN)NC(=O)[C@]2(C)CCCC=CCCC[C@](C)(NC(=O)CN)C(=O)NCC(=O)N[C@@H](CCCCN)C(=O)N[C@@H](Cc3ccccc3)C(=O)N2)CCCC=CCCC[C@@](C)(C(=O)N[C@@H](C)C(=O)N[C@@H](CCCCN)C(=O)N[C@@H](CCCCN)C(N)=O)NC(=O)[C@H](CCC(=O)O)NC(=O)CNC1=O [compound 40] (H-G[S5]GKF[S5]KK[Dap]KKFGKA[S5]VGE[S5]AKK-NH2; staple 2-6, 16-20) | 2 | 2 | 4 | 8 | >64 | 200 (≈ 79.3 µM) | 203 (≈ 80.5 µM) |
| CC(C)[C@@H]1NC(=O)[C@@](C)(NC(=O)[C@H](C)NC(=O)[C@H](CCCCN)NC(=O)CNC(=O)[C@H](Cc2ccccc2)NC(=O)[C@H](CCCCN)NC(=O)[C@H](CCCCN)NC(=O)[C@H](CCCCN)NC(=O)[C@H](CO)NC(=O)[C@H](Cc2c[nH]cn2)NC(=O)[C@]2(C)CCCC=CCCC[C@](C)(NC(=O)CN)C(=O)NCC(=O)N[C@@H](CCCCN)C(=O)N[C@@H](Cc3ccccc3)C(=O)N2)CCCC=CCCC[C@@](C)(C(=O)N[C@@H](C)C(=O)N[C@@H](CCCCN)C(=O)N[C@@H](CCCCN)C(N)=O)NC(=O)[C@H](CC(=O)O)NC(=O)CNC1=O [compound 16] (H-G[S5]GKF[S5]HSKKKFGKA[S5]VGD[S5]AKK-NH2; staple 2-6, 16-20) | 12 | 4 | 16 | >64 | >64 | > 200 | > 200 |
| CC(C)[C@@H]1NC(=O)[C@@](C)(NC(=O)[C@H](CCCCN)NC(=O)[C@H](CCCCN)NC(=O)[C@H](CCCCN)NC(=O)[C@H](CCCCN)NC(=O)[C@H](CCCCN)NC(=O)[C@]2(C)CCCC=CCCC[C@](C)(NC(=O)CN)C(=O)NCC(=O)N[C@@H](CCCCN)C(=O)N[C@@H](Cc3ccccc3)C(=O)N2)CCCC=CCCC[C@@](C)(C(=O)N[C@@H](C)C(=O)N[C@@H](CCCCN)C(=O)N[C@@H](CCCCN)C(N)=O)NC(=O)[C@H](CCC(=O)O)NC(=O)CNC1=O [compound 70] (H-G[S5]GKF[S5]KKKKK[S5]VGE[S5]AKK-NH2; staple 2-6, 12-16) | 4 | 16 | 4 | 4 | >64 | 125 (≈ 57.8 µM) | 102 (≈ 47.2 µM) |
| CC(C)[C@@H]1NC(=O)[C@@](C)(NC(=O)[C@H](Cc2c[nH]c3ccccc23)NC(=O)[C@H](CCCCN)NC(=O)CNC(=O)[C@H](Cc2ccccc2)NC(=O)[C@H](CCCCN)NC(=O)[C@H](CCCCN)NC(=O)[C@H](CCCCN)NC(=O)[C@H](CO)NC(=O)[C@H](Cc2c[nH]cn2)NC(=O)[C@]2(C)CCCC=CCCC[C@](C)(NC(=O)CN)C(=O)NCC(=O)N[C@@H](CCCCN)C(=O)N[C@@H](Cc3ccccc3)C(=O)N2)CCCC=CCCC[C@@](C)(C(=O)N[C@@H](C)C(=O)N[C@@H](CCCCN)C(=O)N[C@@H](CCCCN)C(N)=O)NC(=O)[C@H](CCC(=O)O)NC(=O)CNC1=O [compound 63] (H-G[S5]GKF[S5]HSKKKFGKW[S5]VGE[S5]AKK-NH2; staple 2-6, 16-20) | 4 | 4 | 6 | 8 | 16 | 32 (≈ 12.1 µM) | 60 (≈ 22.7 µM) |
| CC(C)[C@@H]1NC(=O)[C@@](C)(NC(=O)[C@H](C)NC(=O)[C@H](CCCN)NC(=O)CNC(=O)[C@H](Cc2ccccc2)NC(=O)[C@H](CCCN)NC(=O)[C@H](CCCN)NC(=O)[C@H](CCCN)NC(=O)[C@H](CCCN)NC(=O)[C@H](CCCN)NC(=O)[C@]2(C)CCCC=CCCC[C@](C)(NC(=O)CN)C(=O)NCC(=O)N[C@@H](CCCN)C(=O)N[C@@H](Cc3ccccc3)C(=O)N2)CCCC=CCCC[C@@](C)(C(=O)N[C@@H](C)C(=O)N[C@@H](CCCN)C(=O)N[C@@H](CCCN)C(N)=O)NC(=O)[C@H](CCC(=O)O)NC(=O)CNC1=O [compound 24] (H-G[S5]G[Orn]F[S5][Orn][Orn][Orn][Orn][Orn]FG[Orn]A[S5]VGE[S5]A[Orn][Orn]-NH2; staple 2-6, 16-20) | 4 | 2 | 2 | 32 | 64 | 100 (≈ 41 µM) | 44 (≈ 18 µM) |

Further lines, with some results ahead:

| Minimum Inhibitory Concentration (MIC) E. coli [1] [µg/mL] | Minimum Inhibitory Concentration (MIC) A. baumannii [2] [µg/mL] | Minimum Inhibitory Concentration (MIC) P. aeruginosa [3] [µg/mL] | Minimum Inhibitory Concentration (MIC) K. pneumoniae [4] [µg/mL] | Minimum Inhibitory Concentration (MIC) S. aureus [5] [µg/mL] | IC50 at 90 min [6] [µg/mL] | Compound | IC50 at 48 hours [7] [µg/mL] |
| --- | --- | --- | --- | --- | --- | --- | --- |
| 2 | 2 | 4 | 4 | >64 | 214 (≈ 81.6 µM) | CC(C)[C@@H]1NC(=O)[C@@](C)(NC(=O)[C@H](C)NC(=O)[C@H](CCCCN)NC(=O)CNC(=O)[C@H](Cc2ccccc2)NC(=O)[C@H](CCCCN)NC(=O)[C@H](CCCCN)NC(=O)[C@H](CCCCN)NC(=O)[C@H](CO)NC(=O)[C@H](Cc2c[nH]cn2)NC(=O)[C@]2(C)CCCC=CCCC[C@](C)(NC(=O)CN)C(=O)NCC(=O)N[C@@H](CCCCN)C(=O)N[C@@H](Cc3ccccc3)C(=O)N2)CCCC=CCCC[C@@](C)(C(=O)N[C@@H](C)C(=O)N[C@@H](CCCCN)C(=O)N[C@@H](CCCCN)C(N)=O)NC(=O)[C@H](CCC(=O)O)NC(=O)[C@H](Cc2ccccc2)NC1=O [compound 14] (H-G[S5]GKF[S5]HSKKKFGKA[S5]VFE[S5]AKK-NH2; staple 2-6, 16-20) | 222 (≈ 84.7 µM) |
| 2 | 3 | 4 | 4 | >64 | 202 (≈ 75.8 µM) | CC(C)[C@@H]1NC(=O)[C@@](C)(NC(=O)[C@H](C)NC(=O)[C@H](CCCCN)NC(=O)CNC(=O)[C@H](Cc2ccccc2)NC(=O)[C@H](CCCCN)NC(=O)[C@H](CCCCN)NC(=O)[C@H](CCCCN)NC(=O)[C@H](CCCCN)NC(=O)[C@H](Cc2c[nH]cn2)NC(=O)[C@]2(C)CCCC=CCCC[C@](C)(NC(=O)CN)C(=O)NCC(=O)N[C@@H](CCCCN)C(=O)N[C@@H](Cc3ccccc3)C(=O)N2)CCCC=CCCC[C@@](C)(C(=O)N[C@@H](C)C(=O)N[C@@H](CCCCN)C(=O)N[C@@H](CCCCN)C(N)=O)NC(=O)[C@H](CCC(=O)O)NC(=O)[C@H](Cc2ccccc2)NC1=O [compound 22] (H-G[S5]GKF[S5]HKKKKFGKA[S5]VFE[S5]AKK-NH2; staple 2-6, 16-20) | > 200 |
| 6 | 2 | 8 | 16 | >64 | > 200 | CC(C)[C@@H]1NC(=O)[C@@](C)(NC(=O)[C@H](C)NC(=O)[C@H](CCCCN)NC(=O)CNC(=O)[C@H](Cc2ccccc2)NC(=O)[C@H](CCCCN)NC(=O)[C@H](CCCCN)NC(=O)[C@H](CCCCN)NC(=O)[C@H](CO)NC(=O)[C@H](Cc2c[nH]cn2)NC(=O)[C@]2(C)CCCC=CCCC[C@](C)(NC(=O)CN)C(=O)NCC(=O)N[C@@H](CCCCN)C(=O)N[C@@H](Cc3ccccc3)C(=O)N2)CCCC=CCCC[C@@](C)(C(=O)N[C@@H](C)C(=O)N[C@@H](CCCCN)C(=O)N[C@@H](CCCCN)C(N)=O)NC(=O)[C@H](CCC(=O)O)NC(=O)[C@H]([C@@H](C)O)NC1=O [compound 15] (H-G[S5]GKF[S5]HSKKKFGKA[S5]VTE[S5]AKK-NH2; staple 2-6, 16-20) | > 200 |

Reference: patent US20240174723A1, “STAPLED ANTIMICROBIAL PEPTIDES (STAMPS) AND USES THEREOF” (Lytica Therapeutics, Inc., priority 2021, published 2024)
